Assay results taken from patent US20230056189A1, “COMPOSITIONS AND METHODS FOR TREATMENT OF PATHOLOGIC PAIN ASSOCIATED WITH MALIGNANT GROWTH DISORDER” (Duke University, priority 2020, published 2023).

Columns and labels:
[1] = tested on: intracellular chloride ([Cl-]i) of primary cortical neurons; test: Secondary screen: Clomeleon chloride imaging in cultured primary cortical neurons; assay type: cell-based, mouse; details: for Chloride [Cl—]i, value left of '=>': starting value before the arrow; for Chloride [Cl—]i, value right of '=>': value after the arrow (with compound)
Protocol: (§1) The primary screen encompassed three levels of LUC measurements. The first level of screening yielded a total of 137 compounds with cut-off RLU>125% LUC activity. These 137 compounds were subject to second round of screening, which was carried out in duplicate independent assays to yield the top 103 compounds sorted for highest RLU. The 103 compounds were then subjected to a third round of screening carried out in duplicate independent assays to yield the top 40 compounds which were again ranked. The best 22 of these 40 compounds (ranked for highest RLU activity) were subjected to secondary screening: cultured neurons were treated with the 22 compounds; RT-qPCR and Clomeleon imaging methodologies (Yeo et al., 2009, J Neurosci 29: 14652-14662) were used to determine effects of compounds on Kcc2 mRNA expression and [Cl-]i, respectively. Each compound was ranked based on composite scores from primary and secondary screening.
(§2) Chloride imaging of primary cultured cortical neurons was conducted as previously described (Kuner and Augustine, 2000, Neuron 27: 447-459; Liedtke et al., 2013, Small (Weinheim an der Bergstrasse, Germany) 9: 1066-1075; Yeo et al., 2009, J Neurosci 29: 14652-14662). A Clomeleon expression plasmid was transfected into primary cortical neurons by electroporation (Amaxa Nucleofector Device). Transfected neurons were verified by yellow fluorescent protein (YFP) fluorescence, and ratiometric images (excitation at λ=434 nm, dual emission at λ=485 and 535 nm; for resting chloride, six stable frames at […] were captured, which were averaged) were acquired using RATIOTOOL program. Calibration of Clomeleon signals (535 nm/485 nm emission ratio) was performed by using tributyltin-nigericin to establish a standard curve, which was then normalized for measured intraneuronal pH to take into account the pH sensitivity of Clomeleon.
(§3) 1057 compounds were screened and contained in two NCI libraries: NCI compound libraries Natural Products II and Mechanistic Diversity Set II (FIG. 1, Table 2), related to inhibition of growth of malignantly transformed cells. […] Iterative screening followed by measurements of Kcc2 mRNA (RT-qPCR) and intracellular chloride ([Cl-]i) (clomeleon chloride indicator protein) led to decreasing numbers of re confirmed hits, which eventually identified four (4) “winner” compounds listed in the bottom panel of FIG. 1.

Kcc2 gene expression = test: Composite ranking from primary and secondary screening; assay type: cell-based, mouse; details: for Total Score: sum of Luciferase, RT-qPCR and Clomeleon scores; for Top 2 Hits: winner = top 2 of each library by total score
Protocol: as §1, §3

Kcc2 promoter = test: Primary screen: luciferase (LUC) activity in primary cortical neurons from Kcc2-LUC transgenic mice; assay type: cell-based, mouse; details: rank score within compound library; compounds 100 nM for 48 h
Protocol: Cell suspension was plated at a density of 1×10^6 cells/ml onto 24-well tissue-culture dishes coated with poly-d-lysine.
LUC activity was then determined for each compound. Culture supernatant was removed and cells were lysed with 150 μl lysis buffer (Targeting Systems CA, USA cat. CLR1). LUC activity was measured with a RedLuciferase Assay kit (Targeting Systems cat. FLAR) according to the manufacturer's instructions. A Veritas microplate luminometer was used to measure luminescence; for each treatment triplicates of 40 μl cell lysates (from each 24-well tissue-culture dish) were used and 25 μl substrate was injected per well. […] Relative Light units (RLU) for each treatment was derived from Light Units (compound treatment)/vehicle treatment (0.5% DMSO).
The primary screen encompassed three levels of LUC measurements. […] Each compound was ranked based on composite scores from primary and secondary screening.

Kcc2 mRNA = test: Secondary screen: Kcc2 RT-qPCR in cultured primary cortical neurons; assay type: cell-based, mouse; details: rank score within compound library
Protocol: as §1, with “Each compound was ranked based on composite scores from primary and secondary screening.” left out
Total RNA was isolated from cultured cell samples using Directzol RNA miniprep kit (ZymoResearch). […] Gene expression was assessed by quantitative real-time PCR using 2×SYBR Green Master Mix (Qiagen) and a three-step cycling protocol (anneal at 60° C./elongate at 72° C., denature at 95° C.). […] The amount of target messenger RNA (mRNA) in the experimental group relative to that in the control was determined from the resulting fluorescence and threshold values (Ct) using the […] method. […] was used as a housekeeping gene. […]

MDA MB-231 = test: MTT cell viability assay; assay type: cell-based; details: KP 100 nM and/or paclitaxel 1 nM or 10 nM, 72 hours
Protocol: (§4) Two commonly used breast cancer cell lines (MCF7 and MDA MB-231) and one melanoma cell line (A375) were used in this study. 100 nM Kenpaullone (KP) and/or 1 nM or 10 nM paclitaxel (Taxol) were administered to the cell lines to test their impact on cell viability. Each bar represents an average of 6 experiments, and error bars represent SEM. Cell line maintenance and MTT cell viability assay were done according to Xiao et al. (2018, BMC Cancer, 18(1): 675). Cell viability was assessed after 72 hours.

MCF7 = test: MTT cell viability assay; assay type: cell-based; details: KP 100 nM and/or paclitaxel 1 nM or 10 nM, 72 hours
Protocol: as §4

A375 = test: MTT cell viability assay; assay type: cell-based; details: KP 100 nM and/or paclitaxel 1 nM or 10 nM, 72 hours
Protocol: as §4

neuronal [Cl-]i = test: Clomeleon [Cl-]i measurement in rat primary cortical neurons; assay type: cell-based; details: VU0240551 2.5 μM, both vehicle-treated and KP-treated rat neurons
Protocol: as §2
Results represent the average mRNA expression of multiple independent neuronal cultures [n=12 (control), n=4 (0.1 μM KP), n=3 (0.2 μM KP), n=10 (0.5 μM KP). *p<0.05, **p<0.01, ****p<0.0001, one-way ANOVA].
It is shown that KP enhanced Kcc2 gene expression and KCC2 chloride extrusion function with rather rapid kinetics within 3 h time frame.

For `CC1(C)CCC[C@]2(C)C3=C(CC[C@@H]12)C(=O)OC3` [confertifoline], the “Chloride [Cl—]i, value left of '=>'” value [1] was 75 mM and the “Chloride [Cl—]i, value right of '=>'” value [1] was 42 mM.
With `COc1cc2c3c(c4ccc(OC)c(OC)c4c2cc1OC)CN1CCC[C@H]1C3` [tylocrebrine] the “Chloride [Cl—]i, value left of '=>'” value [1] was 75 mM and the “Chloride [Cl—]i, value right of '=>'” value [1] was 39 mM.
`CC(=O)Nc1ccc(-c2nc3ccccc3s2)cc1` [NSC33006, N-[4-(1,3-benzothiazol-2-yl)phenyl]acetamide] was tested, and the “Chloride [Cl—]i, value left of '=>'” value [1] was 74 mM, the “Chloride [Cl—]i, value right of '=>'” value [1] was 28 mM and the “Total Score” value (Kcc2 gene expression) was 5. For the same compound, the “Top 2 Hits” value (Kcc2 gene expression) was “winner”.
With `CC(=O)C1CCCC(=O)/C=C/C(=O)O1` (stereo not shown) [NSC180515, 2-Acetyl-2,3,4,5-tetrahydrooxonine-6,9-dione] the “Chloride reduction (%)” value [1] was 32%, the “Clomeleon Score (duplicates)” value ([1]; rank score within compound library) was 1 and the “Chloride [Cl—]i, value left of '=>'” value [1] was 68 mM. For the same compound, the “Chloride [Cl—]i, value right of '=>'” value [1] was 22 mM, the “Luciferase Score (triplicates)” value (Kcc2 promoter) was 4 and the “Total Score” value (Kcc2 gene expression) was 6. The “Top 2 Hits” value (Kcc2 gene expression) was “winner” and the “RT-qPCR Score (triplicates)” value (Kcc2 mRNA) was 1.
For `CC(O)CCC(=O)c1ccoc1` (stereo not shown) [4-Ipomeanol], the “Chloride [Cl—]i, value left of '=>'” value [1] was 74 mM, the “Chloride [Cl—]i, value right of '=>'” value [1] was 32 mM and the “Total Score” value (Kcc2 gene expression) was 8.
For `Cc1cc(-c2nc3ccccc3s2)ccc1N` [4-(1,3-Benzothiazol-2-yl)-2-methylaniline], the “Chloride [Cl—]i, value left of '=>'” value [1] was 82 mM, the “Chloride [Cl—]i, value right of '=>'” value [1] was 38 mM and the “Total Score” value (Kcc2 gene expression) was 13.
`N=C1N=CN=C2C([C@@H]3O[C@H](CO)[C@@H](O)[C@H]3O)=CN=C12` [9-Deazaadenosine] was tested, and the “Chloride [Cl—]i, value left of '=>'” value [1] was 82 mM, the “Chloride [Cl—]i, value right of '=>'” value [1] was 40 mM and the “Total Score” value (Kcc2 gene expression) was 11.
In the case of `CC(=O)O[C@H]1C(=O)[C@@]2(C)[C@H]([C@H](OC(=O)c3ccccc3)[C@]3(O)C[C@H](OC(=O)[C@H](O)[C@@H](NC(=O)c4ccccc4)c4ccccc4)C(C)=C1C3(C)C)[C@]1(OC(C)=O)CO[C@@H]1C[C@@H]2O` [paclitaxel], the “cell viability (MTT)” value (MDA MB-231) is reported as “sensitive”, the “cell viability (MTT)” value (MCF7) is reported as “sensitive” and the “cell viability (MTT)” value (A375) is reported as “sensitive”.
For `C[C@@]12C(=O)OC(=O)[C@]1(C)[C@H]1CC[C@@H]2O1` [cantharidine], the “Chloride [Cl—]i, value left of '=>'” value [1] was 68 mM and the “Chloride [Cl—]i, value right of '=>'” value [1] was 33 mM.
For `Cc1ccc(NC(=O)c2cccc([N+](=O)[O-])c2O)c(C)c1` [NSC79456, n-(2,4-Dimethylphenyl)-2-hydroxy-3-nitrobenzamide], the “Chloride [Cl—]i, value left of '=>'” value [1] was 74 mM, the “Chloride [Cl—]i, value right of '=>'” value [1] was 24 mM and the “Total Score” value (Kcc2 gene expression) was 5. For the same compound, the “Top 2 Hits” value (Kcc2 gene expression) was “winner”.
For `COc1ccc(C[C@H]2NC[C@H](O)[C@H]2OC(C)=O)cc1` [anisomycine], the “Chloride [Cl—]i, value left of '=>'” value [1] was 75 mM and the “Chloride [Cl—]i, value right of '=>'” value [1] was 43 mM.
In the case of `Cc1csc(NC(=O)CSc2ccc(-c3ccccc3)nn2)n1` [VU0240551], the “[Cl-]i with add-on KCC2-transport blocker” value (neuronal [Cl-]i) is reported as ≥ 120 mM.
